Reference: patent publication US20040097478A1, “Remedies for retina and choroid diseases containing steroids as the active ingredient” (SANTEN PHARMACEUTICAL O., LTD, priority 2001, published 2004)
Read-outs that look alike come from different tables or passages of the source.

Experiments:
[1] = system: Laser-induced rat choroidal neovascularization models; details: for Neovascularization exhibition rate (%, average of eight eyes): fluorescein fundus angiography on seventh day; for Choroidal neovascularization inhibition rate (%): versus vehicle administration group
Experimental: (§1) A one ml/kg mixed solution (7:1) of a 5% ketamine hydrochloride injection and a 2% xylazine hydrochloride injection was administered intramuscularly to rats to anesthetize them systemically. A 0.5% tropicamide-0.5% phenylephrine hydrochloride ophthalmic solution was instilled into the eyes to cause mydriasis, and then photocoagulation was performed with a krypton laser photocoagulation apparatus. The photocoagulation was carried out in a posterior section of ocular fundus at eight spots per eye sparsely avoiding thick retinal vessels and focusing on the retinal depth (coagulation conditions: spot size: 100 μm, output: 100 mW, coagulation time: 0.1 sec). After the photocoagulation, the ocular fundus was photographed to confirm laser irradiation sites.
Triamcinolone was suspended in the phosphate buffers as a comparative group so that its concentrations were 0.2 mg/ml and 2 mg/ml, and each suspension was administered similarly. The phosphate buffer was administered similarly as a vehicle administration group.
(§2) On seventh day after the photocoagulation, 0.1 ml of 10% fluorescein was injected from carotid vein, and fluorescein fundus angiography was performed. In the fluorescein fundus angiography, a spot where fluorescence diapedesis was not observed was judged as negative, and a spot where fluorescence diapedesis was observed was judged as positive. Each neovascularization exhibition rate was obtained by calculating the ratio of a positive spot number to eight spots irradiated with the laser, and each choroidal neovascularization inhibition rate was calculated according to the following equation.
(§3) Choroidal neovascularization inhibition rate (%)=(Ao−Ax)/Ao×100
(§4) Ao: Neovascularization exhibition rate of vehicle administration group
(§5) Ax: Neovascularization exhibition rate of drug administration group

[2] = system: Thrombin-induced rat retinal vessel hyperpermeability models; test: Retinal vessel permeability inhibition tests of betamethasone phosphate; format: in vivo; details: administered with thrombin
Experimental: A one ml/kg mixed solution (7:1) of a 5% ketamine hydrochloride injection and a 2% xylazine hydrochloride injection was intramuscularly administered to rats to anesthetize them systemically. Then, a 0.5% tropicamide-0.5% phenylephrine hydrochloride ophthalmic solution was instilled into left eyes to cause mydriasis. Thrombin (500. U/ml, 2.5 μl) was injected into vitreous bodies (left eye) of rats of a drug administration group and a control group with a 33 G needle without injuring crystalline lenses and retinas while observing them with a microscope for operation. A vehicle (Dulbecco's modified phosphate buffer physiological saline) was administered to rats of a normal group instead of thrombin. […]
Forty-eight hours after administering thrombin intravitreously, the 0.5% tropicamide-0.5% phenylephrine hydrochloride ophthalmic solution was instilled into the eyes to cause mydriasis. […] About 40 minutes after administering fluorescein, blood was collected from hearts, and then an intraocular fluorescent pigment concentration was immediately measured with a fluorotron master. The collected blood was centrifuged at 15,000 rpm×5 minutes, then supernatant (plasma) was diluted 51 times with the phosphate buffer physiological saline, and a fluorescent pigment concentration in the plasma was measured with the fluorotron master. […]

[3] = system: Dispase-induced rabbit PVR models; test: Retinal detachment inhibition tests of betamethasone; format: in vivo; details: 10 mg/eye subconjunctival immediately after dispase
Experimental: A 0.5% tropicamide-0.5% phenylephrine hydrochloride ophthalmic solution was instilled into eyes of rabbits to cause mydriasis, and a 1 ml/kg mixed solution (7:1) of a 5% ketamine hydrochloride injection and a 2% xylazine hydrochloride injection was administered intramuscularly to the rabbits to anesthetize them systemically. 0.4% oxybuprocaine was instilled into the eyes to anesthetize anterior segments of the eyes, and then 100 μl of a dispase solution prepared at a concentration of 0.05 U/100 μl with physiological saline was injected into vitreous bodies. Six weeks and ten weeks after injecting the dispase solution, PVR induced by dispase was confirmed by observing ocular fundus.
Betamethasone was dissolved in a phosphate buffer so that its concentration was 0.1 g/ml, and the solution was administered subconjunctivally in an amount of 100 μl immediately after injecting dispase. The phosphate buffer was administered similarly as a vehicle administration group.
The ocular fundus was observed 56 days after inducing by dispase, and PVR was judged by scores. Criteria of judgment are shown below. Scores of three or more were defined as exhibition of PVR, and pathogenesis rates of PVR (pathogenesis rates of retinal detachment) in respective groups were calculated according to the equation 2.
1: A vitreous membrane is observed.
2: Traction, vascular abnormality or engorgement of the retina is observed.
3: Topical retinal detachment is observed.
4: Wide retinal detachment is observed.
5: Total retinal detachment is observed.
Pathogenesis rate of PVR (%)=PVR exhibition eye number/test eye number×100

[4] = system: Laser-induced rat choroidal neovascularization models; test: Choroidal neovascularization inhibition tests of hydrocortisone; format: in vivo; details: for Neovascularization exhibition rate (%, average of eight eyes): administered once subconjunctivally immediately after laser irradiation; for Choroidal neovascularization inhibition rate (%): once subconjunctivally, versus vehicle administration group
Experimental: as §1, §2, §3, §4, §5
Hydrocortisone was dissolved in phosphate buffers so that its concentrations were 2 mg/ml and 20 mg/ml, and each solution was administered once subconjunctivally in an amount of 50 μl immediately after laser irradiation. The phosphate buffer was administered similarly as a vehicle administration group.
Evaluation was carried out by a method similar to the above-mentioned tests of betamethasone sodium phosphate.

[5] = 10 μg/eye/day subconjunctival for seven days after laser irradiation
[6] = 100 μg/eye/day subconjunctival for seven days after laser irradiation

Question: What does the source list for `C[C@H]1C[C@H]2[C@@H]3CCC4=CC(=O)C=C[C@]4(C)[C@@]3(F)[C@@H](O)C[C@]2(C)[C@@]1(O)C(=O)COP(=O)([O-])[O-].[Na+].[Na+]` [Betamethasone sodium phosphate, betamethasone sodium phosphate]?
Answer: Neovascularization exhibition rate (%, average of eight eyes) [1, 5]: 34.4%; Neovascularization exhibition rate (%, average of eight eyes) [1, 6]: 11.1%; Effect on hyperpermeability of retinal vessels due to thrombin (in words) [2]: the hyperpermeability of retinal vessels due to thrombin is inhibited

Question: Which results are given for `C[C@]12C=CC(=O)C=C1CC[C@H]1[C@@H]3C[C@@H](O)[C@](O)(C(=O)CO)[C@@]3(C)C[C@H](O)[C@@]12F` [Triamcinolone]?
Answer: Neovascularization exhibition rate (%, average of eight eyes) [1, 5]: 46.9%; Choroidal neovascularization inhibition rate (%) ([1]; 10 μg/eye/day subconjunctival for seven days): 13.1%; Neovascularization exhibition rate (%, average of eight eyes) [1, 6]: 22.3%; Choroidal neovascularization inhibition rate (%) ([1]; 100 μg/eye/day subconjunctival for seven days): 58.8%

Question: Which “Pathogenesis rate of PVR” value ([3]; after 6 weeks) does the source give for `C[C@H]1C[C@H]2[C@@H]3CCC4=CC(=O)C=C[C@]4(C)[C@@]3(F)[C@@H](O)C[C@]2(C)[C@@]1(O)C(=O)CO` [Betamethasone] here?
Answer: 45.5%

Question: What about the “Pathogenesis rate of PVR” value ([3]; after 10 weeks) of the same compound?
Answer: 37.5%

Question: And the “Pathogenesis rate of PVR” value ([3]; after 10 weeks, listed as betamethasone)?
Answer: 37.5%

Question: For `C[C@]12CCC(=O)C=C1CC[C@@H]1[C@@H]2[C@@H](O)C[C@@]2(C)[C@H]1CC[C@]2(O)C(=O)CO` [Hydrocortisone], which “Neovascularization exhibition rate (%, average of eight eyes)” value ([4]; 100 μg/eye/day) is on record?
Answer: 45.3%

Question: What about the “Choroidal neovascularization inhibition rate (%)” value ([4]; 100 μg/eye/day) of the same compound?
Answer: 32.6%

Question: What about the “Neovascularization exhibition rate (%, average of eight eyes)” value ([4]; 1000 μg/eye/day) of the same compound?
Answer: 19.6%

Question: And the “Choroidal neovascularization inhibition rate (%)” value ([4]; 1000 μg/eye/day)?
Answer: 70.8%

Question: What about the “Inhibitory effect on choroidal neovascularization (in words)” value ([4]; both dosages of 100 μg/eye/day and 1,000 μg/eye/day) of the same compound?
Answer: has an inhibitory effect on choroidal neovascularization
